Paper PMC9118553, “In Vivo Bioconcentration of 10 Anionic Surfactants in Rainbow Trout Explained by In Vitro Data on Partitioning and S9 Clearance” (Environmental Science & Technology, 2022)
“And” between values parts separate entries of the source, which are not always exact repeats. Equal entries are not always repeated. Marks after values point to notes of the source that are not given here.

Legend:
rainbow trout = test: In vivo bioconcentration experiment with a mixture of anionic surfactants, flow-through aquaria, 10 °C, pH 7.8; conditions: for Log BCF: determined with measured concentrations in water; for Concentration in fish: individual fish; for BCF (steady-state): plateau 6-96 h, 95% confidence interval in brackets;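 as to Uptake rate constant kU: L kg-1 h-1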
Procedure: The bioconcentration of a mixture of 10 anionic surfactants was measured in rainbow trout in water at pH 7.8. […] The experiment was conducted in flow-through aquaria with juvenile rainbow trout at 10 °C. Ethical approval for the experiments was obtained from Stockholms […] (decision 9967-2017). The fish, fish housing, fish handling, and procedure for introducing the mixture of […] chemicals were very similar to our previous study with cationic surfactants;[5] details are provided in Text S1. The experiment consisted of a 4-day exposure phase and a 7-day depuration phase. […] Water samples were collected and fish were sacrificed according to the schedule in Table S4. The water samples were collected just prior to the daily removal of feces from the aquarium. Triplicate samples were taken at each time point. […] The water/methanol mixture was analyzed using liquid chromatography-mass spectrometry (LC-MS)/MS as described below for fish. At each fish sampling, five fish were sacrificed. Following stunning and severance of the spinal cord, the whole fish were placed in a polyethylene bag, weighed, and immediately frozen at -20 °C. The weight of the individual fish at sacrifice was 24.0 ± 5.6 g. Three of the five fish from each time point were prioritized for analysis based on proximity to the median fish weight. Each fish was […] homogenized with an Ultra-turrax dispersing device. […] This mixture was homogenized in a bullet blender for 5 min and then placed in an ultrasound bath at 45 °C for 15 min. Following centrifugation for 15 min@3200 RCF, the supernatant was decanted and the extraction was repeated. The extracts were combined. For instrumental analysis, 5 μL of the fish extract or 60 μL of the water/methanol mixture (water samples) was separated on an Acquity UPLC BEH C18 column fitted with a BEH C18 pre-column and analyzed on a TSQ Quantiva triple quadrupole mass spectrometer. The mobile phase was methanol (10 mM ammonium acetate) and Milli-Q-filtered water (10 mM ammonium acetate) (see Table S5 for the liquid chromatography program). To avoid detergent blank peaks originating from cleaning mobile phase bottles, the methanol was prepared directly in the solvent bottle as delivered and Milli-Q was tapped into an empty methanol bottle. Furthermore, a guard column was fitted between the mobile phase and the autosampler to prevent background contamination from disturbing the analysis. All analytes were quantified against the BEHP internal standard, as it gave better reproducibility. […] The central goal of the analysis was to estimate kU and kT as well as the BCF (=kU/kT) from measurements of surfactant concentration in fish and water samples collected at different time points of the experiment. For the fish, only those time points were included for which CF(measured) was above the limit of quantitation (LOQ) in all three fish (data below the LOQ will have a positive bias; including them would result in a negative bias in kT). In this analysis, there exist two sources of uncertainty: first, uncertainty in the actual concentration in water CW at the time of sample collection and second, variability in the concentration in fish around the (expected) surfactant concentrations in fish assumed to follow model (1). We therefore set up a model in which we considered uncertainty in both water and fish measurements simultaneously by assuming a parametric model for the surfactant concentration in the water over time (either linear or quadratic) and accounted for the uncertainty in the corresponding parameters of the water model during the estimation of kU and kT. This was done in a joint Bayesian model that we estimated via Hamiltonian Monte Carlo. […]

[1] = Baseline screening BCF (0.0125 DMLW, equilibrium partitioning, no biotransformation); conditions: for Log baseline BCF: determined as 0.0125 DMLW
From the text: Recently, the concept of a baseline screening BCF was introduced for surfactants, based on equilibrium partitioning assuming no biotransformation.[19] The baseline screening BCF for the study chemicals exceeded the measured BCF by 1–2.5 orders of magnitude (Table S16), providing further evidence that biotransformation is an important factor influencing the elimination—and thereby the BCF—of the anionic surfactants studied here in rainbow trout. The deviation of PFOA and PFOS from the regression between BCF and DMLW (Figure 1, upper panel) is attributable to them not being biotransformed.
Table S16: Comparison of the BCF (determined with the measured concentrations in water) and the baseline screening BCF (determined as 0.0125 DMLWa)
CHEMICAL Log BCF Log baseline BCF Log difference […]
a Droge, S. T. J.; Scherpenisse, P.; Arnot, J. A.; Armitage, J. M.; McLachlan, M. S.; Nichols, J.; von der Ohe, P.; Bonnell, M.; Hodges, G. Screening the baseline fish bioconcentration potential of various types of surfactants using phospholipid binding data. Environ. Sci.: Processes Impacts

[2] = cited from earlier work; for log DMW, membrane-water distribution ratio: marked * = measured, used for IVIVE, same values as Table 3
[3] = determined using nominal concentrations in water
[4] = from measured concentrations in water, Bayesian estimate, 95% credible interval in brackets
[5] = measured concentrations in water, simpler estimation method (Text S3), 95% confidence intervals in brackets
[6] = measured concentrations in water

BCF (rainbow trout; [3])	Log BCF (rainbow trout)	Compound	Concentration in fish (rainbow trout; elimination phase, 97 h)	Concentration in fish (rainbow trout; elimination phase, 98 h)	Concentration in fish (rainbow trout; elimination phase, 100 h)	Concentration in fish (rainbow trout; elimination phase, 103 h)	Concentration in fish (rainbow trout; elimination phase, 120 h)	Concentration in fish (rainbow trout; elimination phase, 128 h)	Concentration in fish (rainbow trout; elimination phase, 144 h)	Concentration in fish (rainbow trout; elimination phase, 168 h)	Concentration in fish (rainbow trout; elimination phase, 192 h)	Concentration in fish (rainbow trout; elimination phase, 264 h)	Concentration in fish (rainbow trout; exposure phase, 1 h)	Concentration in fish (rainbow trout; exposure phase, 2 h)	Concentration in fish (rainbow trout; exposure phase, 3 h)	Concentration in fish (rainbow trout; exposure phase, 4 h)	Concentration in fish (rainbow trout; exposure phase, 6 h)	Concentration in fish (rainbow trout; exposure phase, 24 h)	Concentration in fish (rainbow trout; exposure phase, 48 h)	Concentration in fish (rainbow trout; exposure phase, 72 h)	also measured
15.0 L kg-1 ww	1.21 L kg-1 ww	CCCCCCCCCCc1ccc(S(=O)(=O)O)cc1 [C10-1-LAS, 1-n-(p-sulfophenyl)decane]	78 ng g-1 ww (2×) and 103 ng g-1 ww	73 ng g-1 ww and 72 ng g-1 ww and 55 ng g-1 ww	74 ng g-1 ww and 57 ng g-1 ww and 60 ng g-1 ww	47 ng g-1 ww and 58 ng g-1 ww and 51 ng g-1 ww	24 ng g-1 ww and 27 ng g-1 ww and 17.2 ng g-1 ww	14.0 ng g-1 ww and 17.0 ng g-1 ww and 18.2 ng g-1 ww	7.6 ng g-1 ww and 6.8 ng g-1 ww and 10.2 ng g-1 ww	4.7 ng g-1 ww and 3.5 ng g-1 ww (2×)	1.08 ng g-1 ww and 1.14 ng g-1 ww and 1.40 ng g-1 ww	1.0 ng g-1 ww and 0.7 ng g-1 ww and 0.31 ng g-1 ww	8.9 ng g-1 ww and 6.9 ng g-1 ww and 16.6 ng g-1 ww	11.3 ng g-1 ww and 10.6 ng g-1 ww and 7.2 ng g-1 ww	16.5 ng g-1 ww and 19.7 ng g-1 ww and 16.6 ng g-1 ww	26 ng g-1 ww and 32 ng g-1 ww and 75 ng g-1 ww	38 ng g-1 ww (2×) and 27 ng g-1 ww	86 ng g-1 ww and 91 ng g-1 ww and 64 ng g-1 ww	94 ng g-1 ww and 98 ng g-1 ww and 84 ng g-1 ww	112 ng g-1 ww and 87 ng g-1 ww and 70 ng g-1 ww	Elimination rate constant kT (rainbow trout; [3]): 0.049 h⁻¹; Uptake rate constant kU (rainbow trout; [3]): 0.74 L/kg/h; Concentration in fish (rainbow trout; exposure phase, 96 h): 113 ng g-1 ww and 104 ng g-1 ww and 110 ng g-1 ww; Elimination rate constant kT (rainbow trout; [4]): 0.047 (0.044–0.050) h^–1; Uptake rate constant kU (rainbow trout; [4]): 0.77 (0.67–0.87) L kg^–1 ww h^–1; diffusion coefficient (D) in the epithelial membrane of the gills (rainbow trout; in vivo): 2.4 × 10^–8 m h^–1; BCF (kinetic) (rainbow trout; kinetic BCF from measured concentrations in water, 95% credible interval in brackets): 16.3 (14.6–18.2) L kg^–1 ww; BCF (rainbow trout; [5]): 14.7 (8) L kg-1 ww; Elimination rate constant kT (rainbow trout; [5]): 0.046 (3) h-1; Uptake rate constant kU (rainbow trout; [5]): 0.67 (8) L kg-1 ww h-1; BCF (rainbow trout; own values): 16.3 L kg^–1; Log difference (baseline BCF vs BCF) [1]: 1.99 L kg-1 ww; Log baseline BCF [1]: 3.20 L kg-1 ww
0.046 L kg-1 ww	-1.38 L kg-1 ww	CCCCCCCCCCS(=O)(=O)O [C10SO3, decylsulfonate]	3.0 ng g-1 ww and 1.5 ng g-1 ww and 1.3 ng g-1 ww	1.5 ng g-1 ww and 1.0 ng g-1 ww and 1.4 ng g-1 ww	5.1 ng g-1 ww and 1.4 ng g-1 ww (2×)	0.3 ng g-1 ww (2×) and 0.6 ng g-1 ww	0.50 ng g-1 ww and 0.76 ng g-1 ww and 0.61 ng g-1 ww	0.62 ng g-1 ww and 0.49 ng g-1 ww and 0.99 ng g-1 ww	0.63 ng g-1 ww and 0.33 ng g-1 ww and 5.2 ng g-1 ww	0.49 ng g-1 ww and 0.55 ng g-1 ww and 0.16 ng g-1 ww	0.14 ng g-1 ww and 0.15 ng g-1 ww and 0.22 ng g-1 ww	2.0 ng g-1 ww and 1.9 ng g-1 ww and 0.2 ng g-1 ww	1.1 ng g-1 ww and 2.1 ng g-1 ww and 1.4 ng g-1 ww	1.1 ng g-1 ww (2×) and 7.5 ng g-1 ww	1.5 ng g-1 ww and 1.6 ng g-1 ww and 5.5 ng g-1 ww	2.4 ng g-1 ww and 3.5 ng g-1 ww and 6.5 ng g-1 ww	2.1 ng g-1 ww and 2.0 ng g-1 ww and 1.4 ng g-1 ww	42.8 ng g-1 ww and 1.4 ng g-1 ww (2×)	2.4 ng g-1 ww and 3.6 ng g-1 ww and 1.7 ng g-1 ww	3.6 ng g-1 ww and 2.1 ng g-1 ww and 3.0 ng g-1 ww	Concentration in fish (rainbow trout; exposure phase, 96 h): 3.0 ng g-1 ww (2×) and 2.8 ng g-1 ww; BCF (steady-state) (rainbow trout; [6]): 0.042 ^d (0.034–0.050) L kg^–1 ww; Log difference (baseline BCF vs BCF) [1]: 2.48 L kg-1 ww; Log baseline BCF [1]: 1.11 L kg-1 ww; log DMW, membrane-water distribution ratio [2]: 3.01; log DMLW ([2]; measurement from Droge): 3.01 ^e L kg^–1
0.137 L kg-1 ww	-0.87 L kg-1 ww	CCCCCCCCCCCS(=O)(=O)O [C11SO3, undecylsulfonate]	5.5 ng g-1 ww and 3.8 ng g-1 ww and 3.2 ng g-1 ww	3.2 ng g-1 ww and 2.8 ng g-1 ww and 30.6 ng g-1 ww	14.1 ng g-1 ww and 2.8 ng g-1 ww and 3.1 ng g-1 ww	2.2 ng g-1 ww and 3.0 ng g-1 ww and 6.7 ng g-1 ww	0.58 ng g-1 ww and 0.87 ng g-1 ww and 0.78 ng g-1 ww	0.53 ng g-1 ww and 0.50 ng g-1 ww and 0.58 ng g-1 ww	0.49 ng g-1 ww and 0.42 ng g-1 ww and 0.53 ng g-1 ww	0.56 ng g-1 ww and 0.41 ng g-1 ww and 0.22 ng g-1 ww	0.10 ng g-1 ww and 0.19 ng g-1 ww (2×)	1.49 ng g-1 ww and 0.23 ng g-1 ww and 0.19 ng g-1 ww	3.2 ng g-1 ww and 1.5 ng g-1 ww and 8.4 ng g-1 ww	2.1 ng g-1 ww and 1.9 ng g-1 ww and 1.4 ng g-1 ww	2.9 ng g-1 ww and 3.6 ng g-1 ww and 3.2 ng g-1 ww	3.5 ng g-1 ww and 13.4 ng g-1 ww and 41 ng g-1 ww	4.7 ng g-1 ww and 5.0 ng g-1 ww and 3.8 ng g-1 ww	5.5 ng g-1 ww and 4.2 ng g-1 ww and 3.8 ng g-1 ww	4.4 ng g-1 ww and 5.1 ng g-1 ww and 3.7 ng g-1 ww	7.2 ng g-1 ww and 5.2 ng g-1 ww and 4.9 ng g-1 ww	Concentration in fish (rainbow trout; exposure phase, 96 h): 8.1 ng g-1 ww and 7.8 ng g-1 ww and 5.3 ng g-1 ww; BCF (steady-state) (rainbow trout; [6]): 0.136 ^d (0.114–0.158) L kg^–1 ww; Log difference (baseline BCF vs BCF) [1]: 2.35 L kg-1 ww; Log baseline BCF [1]: 1.49 L kg-1 ww; log DMW, membrane-water distribution ratio [2]: 3.39
